Where a name gives a salt, the structure may show the parent alone. Read-outs that look alike come from different tables or passages of the source.
Legend:
[1] = target: T1, human plasmatic butyrylcholinesterase (hBChE) (Homo sapiens, UniProt P06276); assay: biochemical
T1 construct: gene BCHE

[2] = target: T2, human recombinant AChE (hAChE) (Homo sapiens, UniProt P22303); assay: modified Ellman's method; assay type: biochemical
T2 construct: recombinant enzyme purchased from Merck

hGluN1/hGluN2A [3] = target: T3, hGluN1/hGluN2A (Homo sapiens, UniProt Q05586+Q12879); assay: cell-based; set-up: gene GRIN1; cDNA vectors for human GluN1-1a and GluN2A co-transfected with GFP in HEK293 cells; diheteromeric receptor; whole-cell voltage-clamp electrophysiology, inhibition of steady-state L-glutamate-induced currents at -60 mV; conditions: HEK293; -60 mV, 1 mM L-glutamate
T3 sequence (Q12879 23-1464, other chains not shown): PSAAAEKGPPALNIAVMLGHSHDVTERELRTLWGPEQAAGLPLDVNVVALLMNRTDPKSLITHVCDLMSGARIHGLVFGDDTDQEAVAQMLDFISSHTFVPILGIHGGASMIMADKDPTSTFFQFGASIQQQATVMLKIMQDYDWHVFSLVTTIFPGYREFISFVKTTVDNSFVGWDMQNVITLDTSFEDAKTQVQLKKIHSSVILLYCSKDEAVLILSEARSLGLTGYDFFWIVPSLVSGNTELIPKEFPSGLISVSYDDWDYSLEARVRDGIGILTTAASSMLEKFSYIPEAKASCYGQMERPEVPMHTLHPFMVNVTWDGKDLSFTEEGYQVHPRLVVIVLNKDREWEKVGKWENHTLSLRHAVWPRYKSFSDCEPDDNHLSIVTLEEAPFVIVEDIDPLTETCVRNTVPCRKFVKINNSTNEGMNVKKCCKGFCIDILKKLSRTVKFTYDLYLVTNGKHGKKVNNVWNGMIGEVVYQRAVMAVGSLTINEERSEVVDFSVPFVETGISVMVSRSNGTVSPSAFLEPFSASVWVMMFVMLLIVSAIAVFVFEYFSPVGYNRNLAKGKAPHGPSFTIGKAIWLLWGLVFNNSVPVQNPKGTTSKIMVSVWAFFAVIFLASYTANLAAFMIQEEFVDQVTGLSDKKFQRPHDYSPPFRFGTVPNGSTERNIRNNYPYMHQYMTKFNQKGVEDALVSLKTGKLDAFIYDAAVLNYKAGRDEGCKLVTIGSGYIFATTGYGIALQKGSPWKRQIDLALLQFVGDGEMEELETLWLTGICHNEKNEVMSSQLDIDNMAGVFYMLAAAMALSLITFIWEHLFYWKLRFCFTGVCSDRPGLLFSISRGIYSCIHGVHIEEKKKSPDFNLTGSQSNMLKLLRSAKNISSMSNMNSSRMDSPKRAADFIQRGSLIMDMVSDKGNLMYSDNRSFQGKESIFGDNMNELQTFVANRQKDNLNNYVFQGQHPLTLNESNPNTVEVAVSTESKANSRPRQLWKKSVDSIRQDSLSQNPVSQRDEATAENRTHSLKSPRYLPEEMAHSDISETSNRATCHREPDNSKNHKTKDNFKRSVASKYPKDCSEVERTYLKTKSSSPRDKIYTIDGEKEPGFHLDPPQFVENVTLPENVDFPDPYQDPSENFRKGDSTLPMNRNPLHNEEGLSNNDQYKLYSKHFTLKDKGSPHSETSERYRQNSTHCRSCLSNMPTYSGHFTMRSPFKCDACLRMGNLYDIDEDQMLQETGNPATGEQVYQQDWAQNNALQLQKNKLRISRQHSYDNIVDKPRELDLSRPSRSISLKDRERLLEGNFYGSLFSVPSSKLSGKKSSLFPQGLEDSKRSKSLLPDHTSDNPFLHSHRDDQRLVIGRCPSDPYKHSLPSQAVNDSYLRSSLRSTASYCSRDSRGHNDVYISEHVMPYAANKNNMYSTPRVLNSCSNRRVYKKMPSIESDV
Method: (§1) First, we determined the relative inhibition of all novel compounds on the two major diheteromeric NMDA receptor subtypes in the adult cortex – GluN1/GluN2A and GluN1/GluN2B [1] – using a clinically relevant concentration (3 µM). We kept the measured cells at a membrane potential of -60 mV, and the values of relative inhibition by the compounds were calculated from the L-glutamate-induced responses of human versions of the GluN1/GluN2A (hGluN1/hGluN2A) and GluN1/GluN2B (hGluN1/hGluN2B) receptors obtained under steady-state conditions. […] Specifically, in the case of hGluN1/hGluN2A receptors, we obtained relative inhibition values ranging from ∼5% for compound 3h to ∼93% for compound 6f, while for hGluN1/hGluN2B receptors, we measured values ranging from ∼3% for compound 3i to ∼92% for compound 6g at a fixed dose of 3 µM of the tested compound. […] It can be assumed that the positive and negative effects of a given inhibitor of the NMDA receptor in vivo are caused by their affinity and the kinetics of inhibition, in addition to their availability in the CNS. […] In further experiments, we generated concentration-response curves for 6f (0.03-10 µM) and 3l (0.3-300 µM) on both hGluN1/hGluN2A and hGluN1/hGluN2B receptors at negative (-60 mV) and positive (40 mV) membrane potentials (Fig. 2A-D). […] (A, C) Representative whole-cell voltage-clamp recordings of HEK293 cells expressing hGluN1/hGluN2A or hGluN1/hGluN2B receptors showing the inhibitory effects of compound 6f (0.03 - 300 µM) and compound 3l (0.3 - 300 µM) at membrane potentials of 40 mV (A) and -60 mV (C). Glu = 1 mM L-glutamate. (B, D) Normalized inhibitory concentration-response curves for compound 6f and compound 3l for hGluN1/hGluN2A and hGluN1/hGluN2B receptors at membrane potentials of 40 mV (B) and -60 mV (D). Concentration-response curves were fitted using Equation 1; the resulting IC50 values, Hill coefficients, and the numbers of cells measured for each membrane potential are shown in Table 3.

hGluN1/hGluN2B [4] = target: T4, hGluN1/hGluN2B (Homo sapiens, UniProt Q05586+Q13224); assay: cell-based; set-up: gene GRIN1; cDNA vectors for human GluN1-1a and GluN2B co-transfected with GFP in HEK293 cells; diheteromeric receptor; whole-cell voltage-clamp electrophysiology, inhibition of steady-state L-glutamate-induced currents at -60 mV; conditions: HEK293; -60 mV, 1 mM L-glutamate
T4 sequence (Q13224 27-1484, other chains not shown): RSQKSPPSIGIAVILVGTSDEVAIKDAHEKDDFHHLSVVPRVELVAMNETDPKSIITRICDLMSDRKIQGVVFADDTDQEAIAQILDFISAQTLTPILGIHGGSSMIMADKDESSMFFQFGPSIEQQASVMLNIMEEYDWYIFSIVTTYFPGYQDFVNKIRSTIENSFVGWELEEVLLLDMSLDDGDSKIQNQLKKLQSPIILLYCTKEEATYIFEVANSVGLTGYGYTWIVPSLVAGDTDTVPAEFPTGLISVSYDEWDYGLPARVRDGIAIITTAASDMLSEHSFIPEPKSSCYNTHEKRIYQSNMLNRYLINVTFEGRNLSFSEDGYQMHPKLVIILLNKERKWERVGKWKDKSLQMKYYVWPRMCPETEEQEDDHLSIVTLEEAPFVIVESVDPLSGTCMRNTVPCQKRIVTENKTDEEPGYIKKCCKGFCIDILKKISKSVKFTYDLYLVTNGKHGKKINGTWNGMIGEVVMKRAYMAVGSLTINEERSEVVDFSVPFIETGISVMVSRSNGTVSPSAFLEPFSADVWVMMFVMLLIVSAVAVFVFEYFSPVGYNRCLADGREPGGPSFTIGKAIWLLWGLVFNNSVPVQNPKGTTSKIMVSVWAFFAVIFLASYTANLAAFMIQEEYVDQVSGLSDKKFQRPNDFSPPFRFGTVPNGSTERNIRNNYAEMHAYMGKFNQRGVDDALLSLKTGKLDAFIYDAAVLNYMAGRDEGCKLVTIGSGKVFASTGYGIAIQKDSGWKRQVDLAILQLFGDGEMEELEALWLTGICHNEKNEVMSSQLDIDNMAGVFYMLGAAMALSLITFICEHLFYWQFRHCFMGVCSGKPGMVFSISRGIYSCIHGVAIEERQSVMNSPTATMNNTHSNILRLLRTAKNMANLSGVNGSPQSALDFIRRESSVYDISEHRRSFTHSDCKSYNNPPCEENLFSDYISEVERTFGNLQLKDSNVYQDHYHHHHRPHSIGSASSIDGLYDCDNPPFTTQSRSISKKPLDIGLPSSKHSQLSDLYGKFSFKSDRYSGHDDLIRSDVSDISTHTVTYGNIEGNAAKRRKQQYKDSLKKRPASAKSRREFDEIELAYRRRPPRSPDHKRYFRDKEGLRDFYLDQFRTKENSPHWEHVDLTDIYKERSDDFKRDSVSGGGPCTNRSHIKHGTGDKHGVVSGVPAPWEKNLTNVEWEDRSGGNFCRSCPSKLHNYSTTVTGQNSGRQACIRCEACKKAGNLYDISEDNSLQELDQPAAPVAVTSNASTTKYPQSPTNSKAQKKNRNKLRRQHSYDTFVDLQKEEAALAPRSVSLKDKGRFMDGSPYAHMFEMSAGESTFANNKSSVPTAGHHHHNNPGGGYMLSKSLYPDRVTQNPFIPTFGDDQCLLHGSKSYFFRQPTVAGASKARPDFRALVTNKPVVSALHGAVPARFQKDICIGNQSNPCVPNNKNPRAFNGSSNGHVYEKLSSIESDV
Method: as §1

hGluN1/hGluN2B [5] = target: T4, hGluN1/hGluN2B; assay: whole-cell patch clamp, HEK293; assay type: cell-based; set-up: gene GRIN1; cDNA vectors for human GluN1-1a and GluN2B co-transfected with GFP in HEK293 cells; diheteromeric receptor; conditions: -60 mV; 1 mM L-glutamate, 100 µM glycine; pH 7.3; voltage-dependent block
Excerpt: whole-cell patch clamp, HEK293 on hGluN1/hGluN2B

hGluN1/hGluN2A [6] = target: T3, hGluN1/hGluN2A; assay: whole-cell patch clamp, HEK293; assay type: cell-based; set-up: gene GRIN1; cDNA vectors for human GluN1-1a and GluN2A co-transfected with GFP in HEK293 cells; diheteromeric receptor; conditions: -60 mV; 1 mM L-glutamate, 100 µM glycine; pH 7.3; voltage-dependent block
Excerpt: whole-cell patch clamp, HEK293 on hGluN1/hGluN2A

[7] = target: T1, human plasmatic butyrylcholinesterase (hBChE)

T1 sequence (P06276 29-602): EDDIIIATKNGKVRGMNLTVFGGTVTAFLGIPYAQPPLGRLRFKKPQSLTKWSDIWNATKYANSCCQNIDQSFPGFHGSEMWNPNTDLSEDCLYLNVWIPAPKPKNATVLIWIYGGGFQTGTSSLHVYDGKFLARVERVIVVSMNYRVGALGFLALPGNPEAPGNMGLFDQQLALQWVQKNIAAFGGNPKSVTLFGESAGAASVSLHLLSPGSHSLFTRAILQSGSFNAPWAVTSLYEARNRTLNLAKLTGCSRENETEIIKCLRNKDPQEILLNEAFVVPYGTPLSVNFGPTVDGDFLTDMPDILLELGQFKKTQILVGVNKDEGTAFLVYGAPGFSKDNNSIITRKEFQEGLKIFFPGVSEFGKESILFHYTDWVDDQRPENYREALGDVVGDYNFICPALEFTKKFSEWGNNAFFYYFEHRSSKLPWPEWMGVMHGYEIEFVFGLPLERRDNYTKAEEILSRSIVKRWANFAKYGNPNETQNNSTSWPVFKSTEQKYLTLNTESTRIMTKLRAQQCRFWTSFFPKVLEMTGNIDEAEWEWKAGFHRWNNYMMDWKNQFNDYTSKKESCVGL
T2 sequence (P22303 32-614): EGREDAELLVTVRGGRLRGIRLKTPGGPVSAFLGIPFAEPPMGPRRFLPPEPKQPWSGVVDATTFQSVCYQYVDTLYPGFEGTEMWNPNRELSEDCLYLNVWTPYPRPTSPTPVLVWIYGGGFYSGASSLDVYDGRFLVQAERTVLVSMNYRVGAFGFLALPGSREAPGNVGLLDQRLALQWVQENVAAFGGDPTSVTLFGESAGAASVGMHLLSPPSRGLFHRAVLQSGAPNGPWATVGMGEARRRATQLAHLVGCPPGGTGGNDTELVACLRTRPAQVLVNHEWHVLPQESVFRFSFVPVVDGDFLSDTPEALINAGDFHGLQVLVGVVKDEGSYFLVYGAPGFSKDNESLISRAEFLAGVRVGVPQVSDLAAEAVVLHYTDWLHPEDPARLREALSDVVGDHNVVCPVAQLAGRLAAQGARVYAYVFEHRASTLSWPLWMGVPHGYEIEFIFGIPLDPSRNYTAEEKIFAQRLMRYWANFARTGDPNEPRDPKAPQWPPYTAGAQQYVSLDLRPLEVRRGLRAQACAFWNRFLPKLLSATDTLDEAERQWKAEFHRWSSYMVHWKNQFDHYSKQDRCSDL

| Structure (SMILES) | IC50 [1] [µM] | IC50 [2] [µM] | inhibition at 3 µM (hGluN1/hGluN2A [3]) [%] | inhibition at 3 µM (hGluN1/hGluN2B [4]) [%] | IC50 (hGluN1/hGluN2B [5]) [µM] | IC50 (hGluN1/hGluN2A [6]) [µM] | IC50 [7] [µM] |
| --- | --- | --- | --- | --- | --- | --- | --- |
| CC(C)CNC1c2ccccc2C=Cc2ccccc21 [6f, N-isobutyl-5H-dibenzo[a,d][7]annulen-5-amine hydrochloride] | > 100 | > 100 | 93.2 ± 1.11 | 91.77 ± 0.71 | 0.16 ± 0.01 | 0.36 ± 0.06 |  |
| OCCNC1c2ccccc2CCc2ccccc21 [3l, 2-((10,11-dihydro-5H-dibenzo[a,d][7]annulen-5-yl)amino)ethanol hydrochloride] | > 100 | > 100 | 48 ± 5.18 | 49.7 ± 4.47 | 4.4 ± 0.42 | 4.42 ± 0.9 |  |
| C1=Cc2ccccc2C(N2CCCCC2)c2ccccc21 [6h, 1-(5H-dibenzo[a,d][7]annulen-5-yl)piperidine hydrochloride] |  |  | 29.9 ± 2.73 | 58.4 ± 4.37 |  |  | 16.5 ± 0.9 |

— article doi:10.1101/2024.06.17.599304v1, “Dizocilpine derivatives with neuroprotective effect lacking the psychomimetic side effects” (biorxiv, 2024)
